Where “and” joins values, the source holds several entries; their conditions need not be identical. Equal entries are not always repeated.
System: QR2
Experiment: Immunoblot of QR2 in HCT116 cells after 4-day treatment
Format: cell-based, human
Details: 2 μM, 4 days; for QR2 expression, mean ± SEM (vehicle = 1): HCT116, n=6
Description: To establish direct target engagement and cell membrane permeability, a cellular thermal shift assay (CETSA) was carried out, using leading QR2is YB’s-537, 800, and 808. Following a 1 hour preincubation with 5 μM of the QR2is or vehicle, thermal aggregation curves (Taggs) of QR2 expressed in HEK293T were measured in increasing temperatures. All QR2is increased QR2 thermal stability compared with vehicle (Supplemental Figure 2A). Based on the Tagg curves we selected 73°C for isothermal dose-response fingerprint (IDTRF) experiments (Supplemental Figure 2B). The ITDRF allowed the relative quantification of the binding of each of the QR2is to QR2, measured as the EC50 (Figure 3A). […] We evaluated the safety of the QR2is using cell toxicity and viability assays. […] Cell viability was assessed by XTT assay in HEK239T cells, using a dose response, with 3- or 24-hour incubations of the leading QR2is. No sign of toxicity was seen (Figure 3C). Next, we wanted to assess if, similar to QR2 KO, QR2is can reduce cellular ROS in HCT116 cells and see whether any observable effect is occluded in QR2Δ cells. […] We then assessed WT HCT116 cells by immunoblot (Supplemental Figure 2, C and D), after being treated with YB-800 (2 μM) for 4 consecutive days.
H2DCFDA ROS assay was carried out according to established protocols, with some adjustment (Supplemental Methods) ([6]). Cell toxicity was measured via ATP depletion (CellTiter Glo, Promega) in THLE-2 cells (ATCC, CRL-2706), following 72 hours of exposure to the test compounds, and cell viability was assessed using XTT assay (Biological Industries) according to manufacturers protocols. […]
(Ser51) eIF2α (1:1000, Cell Signaling, 9721), diluted in blocking buffer. The ne xt day, the m em br anes w e re washed three times in TBST and incubated at room temperature (RT) for 1 h with 1:10,000 secondary antibodies conjugated to horseradish peroxidase, and following a further t hr e e times washes in TBSTwere immunoblotted with Westar Supernova (Cyanagen), imaged using a charge-coupled device camera and analyzed using Quantity One software (Bio-Rad). […]

**Q.** Which “QR2 expression (replicates)” value (HCT116) does the source give for `Cc1ccc(-c2cn3cccc(C)c3n2)cc1S(=O)(=O)N1CCC(C)CC1` [YB-800] here?
**A.** 1.514 and 1.125 and 1.62 and 0.8886 and 0.7618 and 1.183

**Q.** What about the “QR2 expression, mean ± SEM (vehicle = 1)” value of the same molecule?
**A.** unchanged

**Q.** What about the “QR2 expression, mean ± SEM (vehicle = 1)” value (listed as NG800) of the same molecule?
**A.** 1.182 ± 0.137
